The record followed here is patent publication US10253002B2, “Compounds and methods of treating infections” (Neoculi Pty Ltd., priority 2013, dated 2019).

One data set concerns S. pneumoniae isolates. The data set is described as follows: MBC, Example 5. Type of data set: cell-based, Streptococcus pneumoniae. As to the method:
[Micro-broth dilutions and 96 well trays are prepared by the following method: 90 μL of 4% LHB:CAMHB is aliquotted into all wells using a multichannel pipette. 90 μL of working antimicrobial stocks were no serial diluted down the tray by a 1:2 dilution. Negative broth controls and dilution control were taken into account when planning the set up of a 96 well tray.] 10 μL of bacterial suspension was then added to the appropriate wells in the 96 well tray. Appropriate positive (no antimicrobial), negative (no antimicrobial or bacteria) and negative dilution (a serial dilution control of antimicrobial and broth) controls were included in each assay. […] The MBC was determined by a 99.95% inhibition of S. pneumoniae, taking into account the dilution factor. MICs and MBCs were determined in quadruplicate and the mode was taken as the representative value. The MIC50, MIC90 and MIC range and MBC50, MBC90 and MBC range were determined according to CLSI standards. The MIC50 and MIC90, or MBC50 and MBC90, are defined by the lowest concentrations which, when all the MICs and MBCs of the isolates are arranged from lowest to highest, inhibited the 50th and 90th percentile of the total amount of isolates, respectively.

The test system of data set [1] is DNA synthesis in S. aureus ATCC 29213. The data set is described as follows: Macromolecular synthesis assay: DNA synthesis ([3H] thymidine). Type of data set: cell-based, Staphylococcus aureus. As to the method:
Cells were grown at 35° C. overnight on Trypticase Soy agar. A colony from the plate was used to inoculate 10 ml of Mueller Hinton broth II (MHBII), and the culture was grown to early exponential growth phase (OD600==0.2 to 0.3) while incubating in a shaker at 35° C. and 200 rpm.
When cells reached early exponential phase, 100 μL of culture was added to triplicate wells containing various concentrations of test compound or control antibiotics (5 μL) at 20× the final concentration in 100% DMSO. A 5% DMSO treated culture served as the “no drug” control for all experiments. Cells were added in MHBII at 105% to account for the volume of drug added to each reaction or in M9 minimal medium for protein synthesis reactions. Following 15 min incubation at room temperature, either [^3H] thymidine (DNA synthesis), [^3H] uridine (RNA synthesis) or [^3H] leucine (protein synthesis) was added at 0.5-1.0 μCi per reaction, depending on the experiment. Reactions were allowed to proceed at room temperature for 15-30 min and then stopped by adding 12 μL of cold 5% trichloroacetic acid (TCA) or 5% TCA/2% casamino acids (protein synthesis only). Reactions were incubated on ice for 30 min and the TCA precipitated material was collected on a 25 mm GF/A filter. After washing three times with 5 ml of cold 5% TCA, the filters were rinsed two times with 5 mL 100% ethanol, allowed to dry, and then counted using a Beckman LS3801 liquid scintillation counter.

A short description of data set [2]: Precipitation of NCL812 in assay media, Examples 2 and 3. It counts as physicochemical.
Data set [3] relates to ATP release from S. aureus ATCC 29213. Kind of data set: ATP release assay (CellTiter-Glo). Type of data set: cell-based, Staphylococcus aureus. The note with it: at the MIC ([…] μg/ml); 30 min exposure. The procedure: The CellTiter-Glo Luminescent Cell Viability Assay (Promega) was utilized to measure the leakage of ATP from bacteria. […] The negative control received 2% DMSO, which represented the final DMSO concentration in each assay. After a 30 min exposure to drug, cells were sedimented by centrifugation and the supernatant was analyzed for the presence of ATP. Results were expressed as ATP concentration released to the medium (μM).

In another data set the test system is S. pneumoniae strain D39. Kind of data set: Macro-broth dilution time kill studies. It counts as cell-based, Streptococcus pneumoniae. The procedure: Bacterial suspensions and working antibiotic stocks were prepared as described above. [For preparing macro-broth dilutions, 20 mL tubes were filled each with 9 mL of 4% LHB:CAMHB. 9 mL of a working antimicrobial stock was diluted 1:2 when added to one of the tubes, and then serial diluted down from a high to low concentration of antimicrobial. 1 mL of S. pneumoniae bacterial suspension was added to the appropriate tubes, including the positive control. […] At every 2-3 h during the first 12 h of growth and then at 24 h and 48 h, 50 μL of each bacterial suspension was spread plated onto HBA and incubated at 37° C. with 5% CO2 for 16-24 h.]
Table 17 below indicates the concentrations used for each antimicrobial. Cultures were incubated at 37° C. in 5% CO2 with gentle manual tilting every 10 min for the first 12 h. Viable counts from 50 μL aliquots of each concentration were read following incubation at 37° C. in 5% CO2 for 24 h. The pH of each sample was measured at specific time points using pH indicator strips. Confluent growth was defined when more than 1000 colonies were counted per plate. A bactericidal effect was defined as a 1000 fold reduction (99.9%) of the original cell suspension determined at 24 h for each concentration.

The subject of a further data set is S. aureus MK01 and KC01. The data set is described as follows: MIC, Example 8. The note with it: Staphylococcus aureus, MK01ANDKC01, S. aureus KC01. It counts as cell-based.
Data set [4] concerns non-VRE Enterococcus faecalis USA01. Kind of data set: MBC (CLSI methodology), Example 8. Type of data set: cell-based. The note with it: for NCL812 MBC test, growth on Sheep Blood Agar / Number of Bacteria Growing after 24 hours per ml of sample: E. faecalis (USA01).

In brackets after ≈: the same amount, converted by molar mass. Where two headings read alike, the source gives them in different places. Where only a bound is given, the exact number is not on record here.

From the text for S. aureus MK01 and KC01: Two Staphylococcus aureus isolates were used in the following experiments; S. aureus MK01 a human skin strain, and S. aureus KC01 an equine skin strain. These isolates were identified by Gram stain and biochemical methods, including the Remel Staphaurex commercial kit. […] As this isolate has previously been speciated, it was not subjected to further testing, except for observation of pure, characteristic growth on blood agar.

As for `CC1(C)S[C@@H]2[C@H](NC(=O)[C@H](N)c3ccccc3)C(=O)N2[C@H]1C(=O)O` [Ampicillin], the MBC in the data set on S. pneumoniae isolates (Streptococcus pneumoniae, isolate P21, Table 22, CAMHB diluent for NCL062, read-out: MBC) stood at 0.045 mg/L (≈ 0.129 µM); with S. pneumoniae isolates (Streptococcus pneumoniae, isolate WCH57, Table 22, CAMHB diluent for NCL062, read-out: MBC), 0.09 mg/L (≈ 0.258 µM); with S. pneumoniae isolates (Streptococcus pneumoniae, isolate WCH158, Table 22, CAMHB diluent for NCL062, read-out: MBC), 0.022 mg/L (≈ 0.063 µM); with S. pneumoniae isolates (Streptococcus pneumoniae, pneumococcal isolate A66.1, read-out: MBC), 0.045 mg/L (≈ 0.129 µM); in the data set on S. pneumoniae isolates (Streptococcus pneumoniae, pneumococcal isolate D39, read-out: MBC), 0.023 mg/L (≈ 0.0658 µM); with S. pneumoniae isolates (Streptococcus pneumoniae, pneumococcal isolate EF3030, read-out: MBC), 0.023 mg/L (≈ 0.0658 µM). Besides, the MBC with S. pneumoniae isolates (Streptococcus pneumoniae, pneumococcal isolate L82016, read-out: MBC) worked out at 0.023 mg/L (≈ 0.0658 µM); in the data set on S. pneumoniae isolates (Streptococcus pneumoniae, pneumococcal isolate P9, read-out: MBC), 0.023 mg/L (≈ 0.0658 µM); in the data set with S. pneumoniae isolates (Streptococcus pneumoniae, pneumococcal isolate P21, read-out: MBC), 0.023 mg/L (≈ 0.0658 µM); with S. pneumoniae isolates (Streptococcus pneumoniae, pneumococcal isolate TIGR4, read-out: MBC), 0.023 mg/L (≈ 0.0658 µM); in the data set with S. pneumoniae isolates (Streptococcus pneumoniae, pneumococcal isolate WCH43, read-out: MBC), 0.023 mg/L (≈ 0.0658 µM); in the data set on S. pneumoniae isolates (Streptococcus pneumoniae, pneumococcal isolate WCH46, read-out: MBC) it was 0.045 mg/L (≈ 0.129 µM). Moreover, the MBC with S. pneumoniae isolates (Streptococcus pneumoniae, pneumococcal isolate WCH57, read-out: MBC) came to 0.023 mg/L (≈ 0.0658 µM); with S. pneumoniae isolates (Streptococcus pneumoniae, pneumococcal isolate WCH77, read-out: MBC), 0.023 mg/L (≈ 0.0658 µM); in the data set on S. pneumoniae isolates (Streptococcus pneumoniae, pneumococcal isolate WCH86, read-out: MBC) it was 0.023 mg/L (≈ 0.0658 µM); in the data set on S. pneumoniae isolates (Streptococcus pneumoniae, pneumococcal isolate WCH89, read-out: MBC), 0.023 mg/L (≈ 0.0658 µM); in the data set with S. pneumoniae isolates (Streptococcus pneumoniae, pneumococcal isolate WCH92, read-out: MBC), 0.09 mg/L (≈ 0.258 µM); with S. pneumoniae isolates (Streptococcus pneumoniae, pneumococcal isolate WCH137, read-out: MBC), 0.023 mg/L (≈ 0.0658 µM). Besides, the MBC in the data set on S. pneumoniae isolates (Streptococcus pneumoniae, pneumococcal isolate WCH158, read-out: MBC) came to 0.023 mg/L (≈ 0.0658 µM); in the data set on S. pneumoniae isolates (Streptococcus pneumoniae, pneumococcal isolate WCH184, read-out: MBC), 0.045 mg/L (≈ 0.129 µM); in the data set with S. pneumoniae isolates (Streptococcus pneumoniae, pneumococcal isolate WCH211, read-out: MBC) it was 0.023 mg/L (≈ 0.0658 µM); in the data set on S. pneumoniae isolates (Streptococcus pneumoniae, pneumococcal isolate WU2, read-out: MBC), 0.023 mg/L (≈ 0.0658 µM); in the data set with S. pneumoniae isolates (Streptococcus pneumoniae, all S. pneumoniae isolates, read-out: MBC50), 0.023 mg/L (≈ 0.0658 µM); in the data set on S. pneumoniae isolates (Streptococcus pneumoniae, all S. pneumoniae isolates, read-out: MBC90), 0.023 mg/L (≈ 0.0658 µM). Further, the MBC result against S. pneumoniae isolates (pneumococcal isolate WCH16) is “Autolysis”. The “MBC Range” value against S. pneumoniae isolates (all S. pneumoniae isolates) fell in the range of 0.011 to 0.09 mg/L.
Broadly, the MIC is the least concentration at which growth counts as inhibited. As to `N=C(N/N=C/c1ccc(Cl)cc1)N/N=C/c1ccc(Cl)cc1` [NCL812, 1,3-bis[(E)-(4-chlorophenyl)methyleneamino]guanidine], the results for the “inhibition of DNA synthesis” value in data set [1] (0.5 fold the MIC), in data set [1] ([…] the MIC) and in data set [1] (at the MIC) were 40%, “no inhibition” and “approximately 95%”, respectively. The “Precipitation of NCL812 observed at” value in data set [2] (MIC plates prepared identically without inoculum, MHB II) is ≥ 8 µg/mL. The precipitation observed at in data set [2] (Mueller Hinton broth II, DNA and RNA synthesis assays) is given as 4 to 8 fold the MIC. In data set [3], the “maximal ATP release” value stood at 0.33 µM. In addition, the “growth in viable counts” value in the data set on S. pneumoniae strain D39 (2 μg/mL NCL812) is listed as “Consistent confluent growth”. The “time post-exposure at which compound appeared to be inactivated (increased growth after)” value in the data set with S. pneumoniae strain D39 (NCL812 at 4 μg/mL and 8 μg/mL) came to 11 h. In addition, in the data set on S. pneumoniae strain D39 (between 16 μg/mL and 64 μg/mL NCL812), the “time to eliminate bacterial growth” value is reported as ≤ 8 h. In addition, the MIC against S. aureus MK01 and KC01 was found to be 2 mg/L (≈ 5.98 µM). Further, the “NCL812 MBC test, growth on Sheep Blood Agar” value in data set [4] (4 μg/ml), in data set [4] (8 μg/ml), in data set [4] (16 μg/ml), in data set [4] (32 μg/ml), in data set [4] (64 μg/ml) and in data set [4] ([…]) was “+” each time. The results for the “Number of Bacteria Growing after 24 hours per ml of sample” value in data set [4] (4 μg/ml), in data set [4] (32 μg/ml) and in data set [4] (64 μg/ml) were 488 CFU/ml, 7 CFU/ml and 1 CFU/ml, respectively. Also, in data set [4] (E. faecalis USA01), the MBC test outcome is given as “growth of bacteria was observed at all concentrations of NCL812 tested”.
